# Reference: patent publication US20230414826A1, “FIBRIN HYDROGELS” (Mayo Foundation for Medical Education and Research, priority 2020, published 2023)
# Target: T1, fibrinogen (Evicel) (Homo sapiens, UniProt P02671+P02675+P02679)
# T1 construct: purchased Ethicon (Evicel Biologically Active Component 2)
# T1 sequence (P02671 20-629 limits assumed): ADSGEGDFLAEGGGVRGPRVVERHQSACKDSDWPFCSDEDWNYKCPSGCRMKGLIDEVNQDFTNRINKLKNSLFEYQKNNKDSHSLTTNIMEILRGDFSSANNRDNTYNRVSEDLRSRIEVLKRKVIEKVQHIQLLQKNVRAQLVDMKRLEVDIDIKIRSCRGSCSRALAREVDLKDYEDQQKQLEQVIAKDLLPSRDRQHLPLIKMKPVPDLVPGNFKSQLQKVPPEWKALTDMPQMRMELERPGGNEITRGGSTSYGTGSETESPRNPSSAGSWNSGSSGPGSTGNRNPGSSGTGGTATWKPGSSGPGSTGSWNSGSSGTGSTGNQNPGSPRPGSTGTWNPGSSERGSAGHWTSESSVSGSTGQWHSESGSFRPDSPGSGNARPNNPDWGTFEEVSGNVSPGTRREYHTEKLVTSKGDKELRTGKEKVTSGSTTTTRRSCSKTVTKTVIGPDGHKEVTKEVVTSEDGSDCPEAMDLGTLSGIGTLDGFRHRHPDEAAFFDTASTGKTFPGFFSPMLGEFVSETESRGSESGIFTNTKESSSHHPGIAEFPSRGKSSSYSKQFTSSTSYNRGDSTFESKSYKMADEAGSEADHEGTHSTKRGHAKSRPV
# T1 sequence (P02675 31-491): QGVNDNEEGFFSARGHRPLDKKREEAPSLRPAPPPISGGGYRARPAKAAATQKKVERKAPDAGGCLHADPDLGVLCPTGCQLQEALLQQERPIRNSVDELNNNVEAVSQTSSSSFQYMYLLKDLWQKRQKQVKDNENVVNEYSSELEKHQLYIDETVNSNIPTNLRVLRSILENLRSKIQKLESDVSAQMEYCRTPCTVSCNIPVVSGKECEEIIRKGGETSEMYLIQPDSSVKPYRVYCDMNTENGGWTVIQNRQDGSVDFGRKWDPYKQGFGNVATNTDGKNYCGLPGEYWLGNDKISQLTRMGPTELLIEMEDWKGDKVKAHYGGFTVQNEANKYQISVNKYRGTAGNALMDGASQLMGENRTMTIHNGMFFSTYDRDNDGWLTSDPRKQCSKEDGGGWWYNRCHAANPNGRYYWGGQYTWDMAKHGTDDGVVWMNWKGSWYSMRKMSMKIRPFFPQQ
# T1 sequence (P02679 27-433 limits assumed): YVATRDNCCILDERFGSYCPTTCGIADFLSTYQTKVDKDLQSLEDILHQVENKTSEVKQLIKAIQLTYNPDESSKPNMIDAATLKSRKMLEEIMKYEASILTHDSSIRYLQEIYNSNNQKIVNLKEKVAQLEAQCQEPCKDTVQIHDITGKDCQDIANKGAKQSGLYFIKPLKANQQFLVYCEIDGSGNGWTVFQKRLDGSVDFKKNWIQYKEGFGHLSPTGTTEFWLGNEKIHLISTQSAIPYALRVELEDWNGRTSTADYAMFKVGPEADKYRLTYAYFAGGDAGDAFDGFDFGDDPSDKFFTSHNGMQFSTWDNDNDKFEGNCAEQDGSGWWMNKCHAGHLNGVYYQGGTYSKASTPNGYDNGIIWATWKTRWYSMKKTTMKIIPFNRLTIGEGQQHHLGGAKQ
# Experiment: Fibrinogen clotting assay with coagulation analyzer (Clauss method), tissue glue fibrinogen
# Assay type: biochemical
# Settings: for gelation time (average clotting time): 4.58 mM additive in PBS, fixed 1:20 dilution of fibrinogen (Evicel); for clot time: dye 0.1% w/v; for Effect on Clotting Time: screen, multiple concentrations up to 4.58 mM
# [1] = 0.01% (w/v) dye, 1:20 dilution of fibrinogen, n=10
# [2] = 0.05% (w/v) dye, 1:20 dilution of fibrinogen, n=10
# [3] = 0.10% (w/v) dye, 1:20 dilution of fibrinogen, n=10
SMILES,gelation time (average clotting time) (n=10),clotting time [1],clotting time [2],clotting time [3],"clotting time (0.2-0.4% dye, out of range of detection of the coagulation analyzer)",clot time (fibrinogen 10.0 mg/mL),clot time (fibrinogen 10.9 mg/mL),clot time (fibrinogen 12.0 mg/mL),clot time (fibrinogen 13.3 mg/mL),clot time (fibrinogen 17.1 mg/mL),clot time (fibrinogen 24.0 mg/mL),Effect on Clotting Time,"clotting time (0.2% (w/v) dye, 1:20 dilution of fibrinogen, n=10)","clotting time (0.3% (w/v) dye, 1:20 dilution of fibrinogen, n=10)","clotting time (0.4% (w/v) dye, 1:20 dilution of fibrinogen, n=10)"
"Cc1cc(-c2ccc(/N=N/c3ccc4c(S(=O)(=O)O)cc(S(=O)(=O)O)c(N)c4c3O)c(C)c2)ccc1/N=N/c1ccc2c(S(=O)(=O)O)cc(S(=O)(=O)O)c(N)c2c1O [EB, Evans Blue]",> 70 s,19.4 ± 0.7 s,34.8 ± 4.7 s,43.6 ± 2.5 s,> 70 s,50.9 ± 4.9 s,39.5 ± 3.3 s,31.7 ± 1.8 s,25.7 ± 1.0 s,14.8 ± 0.4 s,8.9 ± 2.3 s,Increase,–,–,–
"Cc1cc(-c2ccc(/N=N/c3c(S(=O)(=O)O)cc4cc(S(=O)(=O)O)cc(N)c4c3O)c(C)c2)ccc1/N=N/c1c(S(=O)(=O)O)cc2cc(S(=O)(=O)O)cc(N)c2c1O [TB, Trypan Blue]",46.3 ± 3.2 s,17.6 ± 0.3 s,18.1 ± 1.4 s,24.4 ± 2.3 s,–,15.7 ± 3.1 s,16.3 ± 0.4 s,11.6 ± 3.7 s,18.1 ± 0.4 s,7.4 ± 0.1 s,5.6 ± 0.1 s,Increase,26.2 ± 4.2 s,25.2 ± 2.9 s,29.8 ± 1.2 s
